# According to US7259167B2, “Antimalarial and antiproliferative pharmacophore models, novel tryptanthrin compounds having increased solubility, and methods of making and using thereof” (United States of America as Represented by the Secretary of …, priority 2002, dated 2007):
# Test: Solubility of DN49 in various solvents
# Type: physicochemical
# Details: for solubility: organic solvent or mixture
# Experimental: The solubility of DN49 (WR288510) was tested in various solvents to determine the properties encouraging solubility. […] An N—H group on an aromatic compound might be forming a complex with tryptanthrin. […] (200 mM) concentration in a solvent. The temperature is a close approximation to the temperature required to achieve solubility. Color is the color of the solution; DN49 is a yellow compound and colors other than yellow indicate close interaction between solvent and solute. Precipitate is whether or not DN49 precipitated out upon cooling to room temperature.
smiles,measurement,setting,value
O=C1c2ccccc2-n2c1nc1ncccc1c2=O [DN49],Precipitate upon cooling to room temperature,"1,4-dioxane",yes
same,solubility,"1,4-dioxane, 80 °C",> 25 mg/mL
same,solubility,"3,4-dihydro-2H-pyran",< 25 mg/mL
same,Precipitate upon cooling to room temperature,Aniline,No
same,solubility,"Aniline, 18 °C",> 25 mg/mL
same,Precipitate upon cooling to room temperature,Benzoic acid,Yes
same,solubility,"Benzoic acid, 50 °C",> 25 mg/mL
same,solubility,"Benzyl alcohol, 30 °C, Benzyly alcohol",> 25 mg/mL
same,Precipitate upon cooling to room temperature,Benzyly alcohol,No
same,solubility,Diethylamine,< 25 mg/mL
same,solubility,"Dimethylsulfoxide, Dimethylsufoxide",< 25 mg/mL
same,Precipitate upon cooling to room temperature,Indole,Solidified
same,solubility,"Indole, 53 °C",> 25 mg/mL
same,Precipitate upon cooling to room temperature,Isoquinoline,Solidified
same,solubility,Isoquinoline,> 25 mg/mL
same,Precipitate upon cooling to room temperature,N-methylbenzylamine,No
same,solubility,N-methylbenzylamine,> 25 mg/mL
same,solubility,N-methylpiperidine,< 25 mg/mL
same,Precipitate upon cooling to room temperature,Nitrobenzene,Yes
same,solubility,Nitrobenzene,> 25 mg/mL
same,Precipitate upon cooling to room temperature,Phenol,solidified
same,solubility,Phenol,> 25 mg/mL
same,Precipitate upon cooling to room temperature,Piperidine,No
same,solubility,Piperidine,> 25 mg/mL
same,Precipitate upon cooling to room temperature,Pyridine,Yes
same,solubility,Pyridine,> 25 mg/mL
same,Precipitate upon cooling to room temperature,Pyrrole,No
same,solubility,Pyrrole,> 25 mg/mL
same,Precipitate upon cooling to room temperature,Pyrrolidine,No
same,solubility,Pyrrolidine,> 25 mg/mL
same,solubility,Tetrahydrofuran,< 25 mg/mL
same,solubility,Toluene,< 25 mg/mL
same,solubility,Triethylamine,< 25 mg/mL
